In US20200181117A1, “SUBSTITUTED 3-HETEROARYLOXY-1H-PYRAZOLES AND SALTS THEREOF AND THEIR USE AS HERBICIDAL ACTIVE SUBSTANCES” (BAYER CROPSCIENCE AKTIENGESELLSCHAFT, priority 2017, published 2020):

Assays:
Type in all cases: in vivo
[1] = system: Viola tricolor; assay: Post-emergence herbicidal action; settings: 1280 g/ha, rated visually after about 3 weeks vs untreated controls
Procedure, shortened: (§1)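 Visual rating against untreated plants, about 3 weeks post-treatment, on a 0-100% scale where 100% means plant death. Treatment: 1280 g/ha of WP/EC preparations with 0.5% additive in 600 l/ha water, sprayed on one-leaf-stage weeds grown in greenhouse sandy loam.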

[2] = system: Pharbitis purpurea; assay: Post-emergence herbicidal action; settings: 1280 g/ha, rated visually after about 3 weeks vs untreated controls
Procedure, shortened: as §1

[3] = system: Amaranthus retroflexus; assay: Post-emergence herbicidal action; settings: 1280 g/ha, rated visually after about 3 weeks vs untreated controls
Procedure, shortened: as §1

[4] = system: Ipomoea purpurea; assay: Post-emergence herbicidal action; settings: 1280 g/ha, rated visually after about 3 weeks vs untreated controls
Procedure, shortened: as §1

[5] = system: Echinochloa crus-galli; assay: Post-emergence herbicidal action; settings: 1280 g/ha, rated visually after about 3 weeks vs untreated controls
Procedure, shortened: as §1

[6] = system: Alopecurus myosuroides; assay: Pre-emergence herbicidal action; settings: 1280 g/ha, scored visually after about 3 weeks vs untreated controls
Procedure, shortened: (§2)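 Seeds were sown in pots and covered with soil; compounds formulated as WP or EC were sprayed onto the soil surface as aqueous suspension or emulsion with 0.5% additive at 600 l/ha water, 1280 g/ha. Greenhouse growth; visual % activity versus untreated controls after about 3 weeks (100% = plants dead).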

[7] = system: Veronica persica; assay: Pre-emergence herbicidal action; settings: 1280 g/ha, scored visually after about 3 weeks vs untreated controls
Procedure, shortened: as §2

[8] = system: Polygonum convolvulus; assay: Pre-emergence herbicidal action; settings: 1280 g/ha, scored visually after about 3 weeks vs untreated controls
Procedure, shortened: as §2

[9] = system: Viola tricolor; assay: Pre-emergence herbicidal action; settings: 1280 g/ha, scored visually after about 3 weeks vs untreated controls
Procedure, shortened: as §2

[10] = system: Matricaria inodora; assay: Pre-emergence herbicidal action; settings: 1280 g/ha, scored visually after about 3 weeks vs untreated controls
Procedure, shortened: as §2

[11] = system: Stellaria media; assay: Pre-emergence herbicidal action; settings: 1280 g/ha, scored visually after about 3 weeks vs untreated controls
Procedure, shortened: as §2

[12] = system: Amaranthus retroflexus; assay: Pre-emergence herbicidal action; settings: 1280 g/ha, scored visually after about 3 weeks vs untreated controls
Procedure, shortened: as §2

[13] = system: Hordeum murinum; assay: Pre-emergence herbicidal action; settings: 1280 g/ha, scored visually after about 3 weeks vs untreated controls
Procedure, shortened: as §2

[14] = system: Setaria viridis; assay: Pre-emergence herbicidal action; settings: 1280 g/ha, scored visually after about 3 weeks vs untreated controls
Procedure, shortened: as §2

[15] = system: Echinochloa crus-galli; assay: Pre-emergence herbicidal action; settings: 1280 g/ha, scored visually after about 3 weeks vs untreated controls
Procedure, shortened: as §2

[16] = system: Abutilon theophrasti; assay: Pre-emergence herbicidal action; settings: 1280 g/ha, scored visually after about 3 weeks vs untreated controls
Procedure, shortened: as §2

[17] = system: Avena fatua; assay: Post-emergence herbicidal action; settings: 1280 g/ha, rated visually after about 3 weeks vs untreated controls
Procedure, shortened: as §1

[18] = system: Alopecurus myosuroides; assay: Post-emergence herbicidal action; settings: 1280 g/ha, rated visually after about 3 weeks vs untreated controls
Procedure, shortened: as §1

[19] = system: Polygonum convolvulus; assay: Post-emergence herbicidal action; settings: 1280 g/ha, rated visually after about 3 weeks vs untreated controls
Procedure, shortened: as §1

[20] = system: Setaria viridis; assay: Post-emergence herbicidal action; settings: 1280 g/ha, rated visually after about 3 weeks vs untreated controls
Procedure, shortened: as §1

[21] = system: Avena fatua; assay: Pre-emergence herbicidal action; settings: 1280 g/ha, scored visually after about 3 weeks vs untreated controls
Procedure, shortened: as §2

[22] = system: Lolium rigidum; assay: Pre-emergence herbicidal action; settings: 1280 g/ha, scored visually after about 3 weeks vs untreated controls
Procedure, shortened: as §2

[23] = system: Stellaria media; assay: Post-emergence herbicidal action; settings: 1280 g/ha, rated visually after about 3 weeks vs untreated controls
Procedure, shortened: as §1

[24] = system: Lolium rigidum; assay: Post-emergence herbicidal action; settings: 1280 g/ha, rated visually after about 3 weeks vs untreated controls
Procedure, shortened: as §1

[25] = system: Abutilon theophrasti; assay: Post-emergence herbicidal action; settings: 1280 g/ha, rated visually after about 3 weeks vs untreated controls
Procedure, shortened: as §1

Structure (SMILES)	herbicidal activity on Viola tricolor [1]	herbicidal activity on Pharbitis purpurea [2]	herbicidal activity on Amaranthus retroflexus [3]	herbicidal activity on Ipomoea purpurea [4]	herbicidal activity on Echinochloa crus-galli [5]	herbicidal activity on Alopecurus myosuroides [6]	herbicidal activity on Veronica persica [7]	herbicidal activity on Polygonum convolvulus [8]	herbicidal activity on Viola tricolor [9]	herbicidal activity on Matricaria inodora [10]	herbicidal activity on Stellaria media [11]	herbicidal activity on Amaranthus retroflexus [12]	herbicidal activity on Hordeum murinum [13]	herbicidal activity on Setaria viridis [14]	herbicidal activity on Echinochloa crus-galli [15]	herbicidal activity on Abutilon theophrasti [16]	herbicidal activity on Avena fatua [21]	herbicidal activity on Lolium rigidum [22]	also measured
COc1cnc(Oc2nn(C)c(C)c2Sc2ccc(Cl)cc2)nc1 [Example I-066]	100%	80%	80%	80%	80%	80%	100%	90%	100%	100%	100%	100%	100%	100%	100%	90%	–	–	–
COc1cnc(Oc2nn(C)c(C)c2Sc2ccc(F)cc2)nc1 [Example I-089]	–	–	–	–	–	90%	100%	90%	100%	100%	100%	100%	90%	100%	100%	100%	80%	90%	herbicidal activity on Avena fatua [17]: 80%; herbicidal activity on Alopecurus myosuroides [18]: 90%; herbicidal activity on Polygonum convolvulus [19]: 90%; herbicidal activity on Setaria viridis [20]: 80%
Cn1cc(Sc2ccc(F)cc2)c(Oc2ncc(Cl)cn2)n1 [Example I-095]	100%	80%	100%	80%	80%	100%	100%	90%	100%	100%	100%	100%	100%	100%	100%	100%	100%	100%	–
Cc1c(Sc2ccc(F)cc2Cl)c(Oc2ncccn2)nn1C [Example I-135]	100%	80%	100%	80%	–	100%	100%	90%	100%	90%	100%	100%	80%	100%	100%	100%	80%	90%	herbicidal activity on Stellaria media [23]: 90%
COc1cnc(Oc2nn(C)c(C)c2Sc2ccc(F)c(F)c2)nc1 [Example I-157]	100%	–	100%	–	100%	100%	100%	100%	100%	100%	100%	100%	100%	100%	100%	100%	100%	100%	herbicidal activity on Alopecurus myosuroides [18]: 100%; herbicidal activity on Polygonum convolvulus [19]: 80%; herbicidal activity on Lolium rigidum [24]: 80%; herbicidal activity on Setaria viridis [20]: 80%; herbicidal activity on Abutilon theophrasti [25]: 90%
CCc1c(Sc2ccc(F)cc2)c(Oc2ncc(OC)cn2)nn1C [Example I-186]	100%	80%	100%	80%	–	–	–	80%	100%	90%	100%	100%	–	100%	–	–	–	–	–
CCc1c(Sc2ccc(F)cc2F)c(Oc2ncc(OC)cn2)nn1C [Example I-207]	80%	90%	90%	90%	–	–	100%	80%	100%	–	100%	100%	–	100%	–	80%	–	–	–
